The target of assay [1] is T1, Dihydrofolate reductase (Homo sapiens, UniProt P00374).
T1 sequence (P00374 whole entry): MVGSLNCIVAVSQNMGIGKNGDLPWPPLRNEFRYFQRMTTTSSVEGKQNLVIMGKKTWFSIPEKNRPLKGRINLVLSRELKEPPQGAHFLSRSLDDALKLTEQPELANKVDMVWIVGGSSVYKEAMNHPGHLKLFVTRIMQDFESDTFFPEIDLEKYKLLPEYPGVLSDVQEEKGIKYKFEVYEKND
Briefly: Inhibitory activity against Dihydrofolate reductase (DHFR) isolated from CCRF-CEM human leukemia cells in experiment 1. Type of assay: cell-free.

The target of assay [2] is T1, Dihydrofolate reductase. In words: Inhibitory activity against Dihydrofolate reductase (DHFR) isolated from CCRF-CEM human leukemia cells in experiment 2. Type of assay: cell-free.

For three compounds, IC50 results are on record in ChEMBL document CHEMBL1129679 (J Med Chem, 1996).

Broadly, the IC50 is the midpoint of a concentration-inhibition curve. In assay [1], `CN(Cc1cnc2nc(N)nc(N)c2n1)c1ccc(C(=O)N[C@H](C[C@@H](F)C(=O)O)C(=O)O)cc1` displayed an IC50 of 0.84 nM.
As for `CN(Cc1cnc2nc(N)nc(N)c2n1)c1ccc(C(=O)NC(CC(F)C(=O)O)C(=O)O)cc1` (racemic), the IC50 in assay [1] was determined as 1.35 nM.
In assay [2], `CN(Cc1cnc2nc(N)nc(N)c2n1)c1ccc(C(=O)NC(C(=O)O)C(F)(F)CC(=O)O)cc1` (racemic) returned an IC50 of 1.34 nM.
